Measured values taken from US7504420B2, “Compounds which inhibit beta-secretase activity and methods of use” (CoMentis, Inc., priority 2005, dated 2009).
Counter-ions that a name gives are not always drawn.

Each molecule was assayed against memapsin 2 (Homo sapiens, UniProt P56817) (assay: Inhibition of memapsin 2 catalytic activity (Ki)). Conditions: memapsin 2, pH 4, 37° C.; read-out: M2K.
Type: biochemical
Experimental: Potency of compounds were determined by measurement of their inhibition of memapsin 2 catalytic activity toward a fluorescent substrate. […] Briefly, assays were performed at pH 4, 37° C., by pre-incubation of memapsin 2 enzyme with compound for 20 minutes. Activity measure was initiated by addition of a fluorogenic substrate FS-2 (Bachem Americas, Torrance, Calif.). Fluorescent signal increase over time was measured as a rate of hydrolysis of the peptide substrate. […]

Chain of memapsin 2 (P56817 46-501): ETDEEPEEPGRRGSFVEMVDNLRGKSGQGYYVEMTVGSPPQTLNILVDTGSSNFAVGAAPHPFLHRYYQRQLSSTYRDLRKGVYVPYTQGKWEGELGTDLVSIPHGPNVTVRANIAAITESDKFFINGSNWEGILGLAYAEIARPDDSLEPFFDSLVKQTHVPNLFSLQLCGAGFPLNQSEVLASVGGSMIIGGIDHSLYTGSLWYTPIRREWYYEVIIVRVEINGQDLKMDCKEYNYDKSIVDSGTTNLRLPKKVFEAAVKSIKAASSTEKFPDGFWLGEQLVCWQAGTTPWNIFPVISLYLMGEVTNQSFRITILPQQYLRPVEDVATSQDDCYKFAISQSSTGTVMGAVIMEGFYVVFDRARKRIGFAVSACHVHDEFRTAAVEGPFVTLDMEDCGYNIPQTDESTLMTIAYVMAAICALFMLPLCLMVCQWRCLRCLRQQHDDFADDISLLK

Row | Ki | Structure (SMILES)
1 | < 0.3 µM | COc1cccc(C(C)NCC(O)C(Cc2ccccc2)NC(=O)c2cccc(C(=O)N(C)Cc3nc(C)cs3)c2)c1 (stereo not drawn) [N1-(3-hydroxy-4-(1-(3-methoxyphenyl)ethylamino)-1-phenylbutan-2-yl)-N3-methyl-N3-((4-methylthiazol-2-yl)methyl)isophthalamide]
2 | < 0.3 µM | COc1cccc(CNCC(O)C(Cc2ccccc2)NC(=O)c2cccc(C(=O)N(Cc3ccccc3)Cc3nc(C)cs3)c2)c1 (stereo not drawn) [N1-benzyl-N3-(3-hydroxy-4-(3-methoxybenzylamino)-1-phenylbutan-2-yl)-N1-((4-methylthiazol-2-yl)methyl)isophthalamide]
3 | < 0.3 µM | COc1cccc(CNCC(O)C(Cc2ccccc2)NC(=O)c2cc(C(=O)NC(C)c3cccc(F)c3)cc(N(C)S(C)(=O)=O)c2)c1 (stereo not drawn) [N1-(1-(3-fluorophenyl)ethyl)-N3-(3-hydroxy-4-(3-methoxybenzylamino)-1-phenylbutan-2-yl)-5-(N-methylmethylsulfonamido)isophthalamide]
4 | < 0.3 µM | COc1cccc(CNCC(O)C(Cc2ccccc2)NC(=O)c2cccc(C(=O)N(Cc3nc(C)cs3)CC(C)C)c2)c1 (stereo not drawn) [N1-(3-hydroxy-4-(3-methoxybenzylamino)-1-phenylbutan-2-yl)-N3-isobutyl-N3-((4-methylthiazol-2-yl)methyl)isophthalamide]
5 | < 0.3 µM | COc1cccc(CNCC(O)C(Cc2ccccc2)NC(=O)c2cccc(C(=O)N(Cc3nc(C)cs3)C3CCCC3)c2)c1 (stereo not drawn) [N1-cyclopentyl-N3-(3-hydroxy-4-(3-methoxybenzylamino)-1-phenylbutan-2-yl)-N1-((4-methylthiazol-2-yl)methyl)isophthalamide]
6 | 0.301 to 0.5 µM | COc1cccc(CNCC(O)C(Cc2ccccc2)NC(=O)c2cccc(C(=O)N(Cc3nc(C)cs3)C3CCCCC3)c2)c1 (stereo not drawn) [N1-cyclohexyl-N3-(3-hydroxy-4-(3-methoxybenzylamino)-1-phenylbutan-2-yl)-N1-((4-methylthiazol-2-yl)methyl)isophthalamide]
7 | < 0.3 µM | CCOc1cccc(CNCC(O)C(Cc2ccccc2)NC(=O)c2cccc(C(=O)N(C)Cc3nc(C)cs3)c2)c1 (stereo not drawn) [N1-(4-(3-ethoxybenzylamino)-3-hydroxy-1-phenylbutan-2-yl)-N3-methyl-N3-((4-methylthiazol-2-yl)methyl)isophthalamide]
8 | < 0.3 µM | COc1cccc(CNCC(O)C(Cc2ccccc2)NC(=O)c2cccc(C(=O)N(C)Cc3coc(C)n3)c2)c1 (stereo not drawn) [N1-(3-hydroxy-4-(3-methoxybenzylamino)-1-phenylbutan-2-yl)-N3-methyl-N3-((2-methyloxazol-4-yl)methyl)isophthalamide]
9 | > 0.501 µM | COc1cccc(CNCC(O)C(Cc2ccccc2)NC(=O)c2cccc(C(=O)N(C)Cc3cnccn3)c2)c1 (stereo not drawn) [N1-(3-hydroxy-4-(3-methoxybenzylamino)-1-phenylbutan-2-yl)-N3-methyl-N3-(pyrazin-2-ylmethyl)isophthalamide]
10 | > 0.501 µM | Cc1csc(CN(C)C(=O)c2cccc(C(=O)NC(Cc3ccccc3)C(O)CNCc3ccccc3)c2)n1 (stereo not drawn) [N1-(4-(benzylamino)-3-hydroxy-1-phenylbutan-2-yl)-N3-methyl-N3-((4-methylthiazol-2-yl)methyl)isophthalamide]
11 | > 0.501 µM | Cc1ccc(CNCC(O)C(Cc2ccccc2)NC(=O)c2cccc(C(=O)N(C)Cc3nc(C)cs3)c2)cc1 (stereo not drawn) [N1-(3-hydroxy-4-(4-methylbenzylamino)-1-phenylbutan-2-yl)-N3-methyl-N3-((4-methylthiazol-2-yl)methyl)isophthalamide]

Continued, molecule first:

Row | Structure (SMILES) | Ki
12 | Cc1csc(CN(C)C(=O)c2cccc(C(=O)NC(Cc3ccccc3)C(O)CNCc3cccc(OCC(C)C)c3)c2)n1 (stereo not drawn) [N1-(3-hydroxy-4-(3-isobutoxybenzylamino)-1-phenylbutan-2-yl)-N3-methyl-N3-((4-methylthiazol-2-yl)methyl)isophthalamide] | < 0.3 µM
13 | COc1cccc(CNCC(O)C(Cc2ccccc2)NC(=O)c2cc(C(=O)NC(C)C3COC4OCCC43)cc(N(C)S(C)(=O)=O)c2)c1 (stereo not drawn) [N1-(1-(hexahydrofuro[2,3-b]furan-3-yl)ethyl)-N3-(3-hydroxy-4-(3-methoxybenzylamino)-1-phenylbutan-2-yl)-5-(N-methylmethylsulfonamido)isophthalamide] | > 0.501 µM
14 | Cc1cc(CNCC(O)C(Cc2ccccc2)NC(=O)c2cc(C(=O)NC(C)c3ccccc3)cc(N(C)S(C)(=O)=O)c2)[nH]n1 (stereo not drawn) [N1-(3-hydroxy-4-((3-methyl-1H-pyrazol-5-yl)methylamino)-1-phenylbutan-2-yl)-5-(N-methylmethylsulfonamido)-N3-(1-phenylethyl)isophthalamide] | > 0.501 µM
15 | CC(NC(=O)c1cc(C(=O)NC(Cc2ccccc2)C(O)CNCc2cn(COCC[Si](C)(C)C)cn2)cc(N(C)S(C)(=O)=O)c1)c1ccccc1 (stereo not drawn) [N1-(3-hydroxy-1-phenyl-4-((1-((2-(trimethylsilyl)ethoxy)methyl)-1H-imidazol-4-yl)methylamino)butan-2-yl)-5-(N-methylmethylsulfonamido)-N3-(1-phenylethyl)isophthalamide] | < 0.3 µM
16 | CC(NC(=O)c1cc(C(=O)NC(Cc2ccccc2)C(O)CNCC2CCCN2C(C)C)cc(N(C)S(C)(=O)=O)c1)c1ccccc1 (stereo not drawn) [N1-(3-hydroxy-4-((1-isopropylpyrrolidin-2-yl)methylamino)-1-phenylbutan-2-yl)-5-(N-methylmethylsulfonamido)-N3-(1-phenylethyl)isophthalamide] | > 0.501 µM

These molecules were tested on Aβ production in Chinese hamster ovary cells that over-express human APP695 with the London and Swedish mutations (assay: Cellular Aβ IC50 determination (Aβ40 sandwich ELISA)). Conditions: Cricetulus griseus, CHO, 24 h, read-out: Cell, Aβ40, CHO cells over-expressing human APP695 (London and Swedish mutations), 24 h.

Row | IC50 | Structure (SMILES)
17 | 1 to 5 µM | COc1cccc(CN(CC(O)C(Cc2ccccc2)NC(=O)c2cc(C(=O)NC(C)c3ccccc3)cc(N(C)S(C)(=O)=O)c2)C(=O)CCC(=O)OCC(O)C2OC(=O)C(O)=C2O)c1 (stereo not drawn) [2-(3,4-dihydroxy-5-oxo-2,5-dihydrofuran-2-yl)-2-hydroxyethyl 4-((2-hydroxy-3-(3-(N-methylmethylsulfonamido)-5-(1-phenylethylcarbamoyl)benzamido)-4-phenylbutyl)(3-methoxybenzyl)amino)-4-oxobutanoate]
18 | < 1 µM | COC(=O)CCCC(=O)N(Cc1cccc(OC)c1)CC(O)C(Cc1ccccc1)NC(=O)c1cc(C(=O)NC(C)c2ccccc2)cc(N(C)S(C)(=O)=O)c1 (stereo not drawn) [methyl 5-((2-hydroxy-3-(3-(N-methylmethylsulfonamido)-5-(1-phenylethylcarbamoyl)benzamido)-4-phenylbutyl)(3-methoxybenzyl)amino)-5-oxopentanoate]
19 | > 5 µM | CC(C)CN1CCC(CNCC(O)C(Cc2ccccc2)NC(=O)c2cc(C(=O)NC(C)c3ccccc3)cc(N(C)S(C)(=O)=O)c2)CC1 (stereo not drawn) [N1-(3-hydroxy-4-((1-isobutylpiperidin-4-yl)methylamino)-1-phenylbutan-2-yl)-5-(N-methylmethylsulfonamido)-N3-(1-phenylethyl)isophthalamide dihydrochloride]
20 | < 1 µM | CC(C)Cc1cncc(CNCC(O)C(Cc2ccccc2)NC(=O)c2cc(C(=O)NC(C)c3ccccc3)cc(N(C)S(C)(=O)=O)c2)c1 (stereo not drawn) [N1-(3-hydroxy-4-((5-isobutylpyridin-3-yl)methylamino)-1-phenylbutan-2-yl)-5-(N-methylmethylsulfonamido)-N3-(1-phenylethyl)isophthalamide]
21 | > 5 µM | COc1cccc(CN(CC(O)C(Cc2ccccc2)NC(=O)c2cc(C(=O)NC(C)c3ccccc3)cc(N(C)S(C)(=O)=O)c2)C(=O)CCCC(=O)NCc2cccnc2)c1 (stereo not drawn) [N1-(3-hydroxy-4-(N-(3-methoxybenzyl)-5-oxo-5-(pyridin-3-ylmethylamino)pentanamido)-1-phenylbutan-2-yl)-5-(N-methylmethylsulfonamido)-N3-(1-phenylethyl)isophthalamide]
